Results published in the NIST ThermoML archive (doi:10.1021/je800635g).
± gives the expanded uncertainty stated by the source.

Details: Liquid, Falling or rolling sphere viscometry

CCCCCCCCCC [decane]
Details	viscosity [mPa·s]
313.15 K, 100 kPa	0.7051 ± 0.0075
323.15 K, 100 kPa	0.6356 ± 0.0068
333.15 K, 100 kPa	0.5646 ± 0.0061
333.15 K, 800 kPa	0.5732 ± 0.0061
333.15 K, 1600 kPa	0.5714 ± 0.0061
333.15 K, 2400 kPa	0.5756 ± 0.0061
333.15 K, 3200 kPa	0.5792 ± 0.0061
343.15 K, 100 kPa	0.5069 ± 0.0054
353.15 K, 100 kPa	0.4514 ± 0.0048
363.15 K, 100 kPa	0.4136 ± 0.0044
373.15 K, 100 kPa	0.3729 ± 0.004
373.15 K, 800 kPa	0.3773 ± 0.0041
373.15 K, 1600 kPa	0.3818 ± 0.0041
373.15 K, 2400 kPa	0.3851 ± 0.0042
373.15 K, 3200 kPa	0.3906 ± 0.0042
393.15 K, 1600 kPa	0.3216 ± 0.0035
413.15 K, 1600 kPa	0.279 ± 0.003
433.15 K, 1600 kPa	0.2328 ± 0.0025
453.15 K, 1600 kPa	0.2072 ± 0.0023
473.15 K, 1600 kPa	0.174 ± 0.0019

Cc1ccc(C)cc1 [1,4-dimethylbenzene]
viscosity [mPa·s]
Details	313.15 K	333.15 K	353.15 K	373.15 K	393.15 K	413.15 K	433.15 K	453.15 K	473.15 K
100 kPa	0.499 ± 0.005	0.409 ± 0.004	0.34 ± 0.004	0.292 ± 0.003	–	–	–	–	–
800 kPa	0.5029 ± 0.0052	0.412 ± 0.004	0.346 ± 0.004	0.297 ± 0.003	0.254 ± 0.003	0.221 ± 0.002	0.192 ± 0.002	0.168 ± 0.002	–
1600 kPa	0.51 ± 0.005	0.414 ± 0.004	0.35 ± 0.004	0.3 ± 0.003	0.258 ± 0.003	0.223 ± 0.002	0.197 ± 0.002	0.17 ± 0.002	0.159 ± 0.002
2400 kPa	0.516 ± 0.005	0.417 ± 0.004	0.356 ± 0.004	0.303 ± 0.003	0.262 ± 0.003	0.226 ± 0.002	0.201 ± 0.002	0.172 ± 0.002	0.163 ± 0.002
3200 kPa	0.521 ± 0.005	0.419 ± 0.004	0.361 ± 0.004	0.305 ± 0.003	0.266 ± 0.003	0.228 ± 0.002	0.206 ± 0.002	0.175 ± 0.002	0.167 ± 0.002
